Measured values taken from the NIST ThermoML archive (doi:10.1021/je7002447).
Numbers after ± are expanded uncertainties.

Assays:
[1] = 298.15 K; 101.33 kPa; Liquid
[2] = excess molar enthalpy (molar enthalpy of mixing); xn = mol fraction of the nth substance listed; conditions: 298.15 K, 101.3 kPa, Liquid, Flow calorimetry

With ClCCc1ccccc1 [(2-chloroethyl)benzene] the mass density [1] was 1066.91 ± 0.57 kg/m3.

Compound ClCCc1ccccc1 [(2-chloroethyl)benzene] + CCCCc1ccccc1 has an excess molar enthalpy ([2]; x1 = 0.1063) of 0.0238 ± 0.001 kcal/mol, an excess molar enthalpy ([2]; x1 = 0.1295) of 0.028 ± 0.00117 kcal/mol and an excess molar enthalpy ([2]; x1 = 0.1655) of 0.0343 ± 0.00143 kcal/mol. For the same compound, the excess molar enthalpy ([2]; x1 = 0.2293) was 0.0443 ± 0.00184 kcal/mol, the excess molar enthalpy ([2]; x1 = 0.3085) was 0.052 ± 0.00215 kcal/mol and the excess molar enthalpy ([2]; x1 = 0.373) was 0.0564 ± 0.00232 kcal/mol. For the same compound, the excess molar enthalpy ([2]; x1 = 0.4424) was 0.0604 ± 0.00239 kcal/mol, the excess molar enthalpy ([2]; x1 = 0.4716) was 0.0607 ± 0.00263 kcal/mol and the excess molar enthalpy ([2]; x1 = 0.5434) was 0.061 ± 0.00263 kcal/mol. For the same compound, the excess molar enthalpy ([2]; x1 = 0.6134) was 0.0592 ± 0.00239 kcal/mol, the excess molar enthalpy ([2]; x1 = 0.7041) was 0.054 ± 0.00222 kcal/mol and the excess molar enthalpy ([2]; x1 = 0.7604) was 0.0477 ± 0.00198 kcal/mol. For the same compound, the excess molar enthalpy ([2]; x1 = 0.8264) was 0.0382 ± 0.0016 kcal/mol, the excess molar enthalpy ([2]; x1 = 0.8639) was 0.0315 ± 0.00131 kcal/mol and the excess molar enthalpy ([2]; x1 = 0.9225) was 0.0195 ± 0.000837 kcal/mol.

Work on ClCCc1ccccc1 [(2-chloroethyl)benzene] + CCCc1ccccc1 yielded an excess molar enthalpy ([2]; x1 = 0.1173) of 0.0173 ± 0.000741 kcal/mol, an excess molar enthalpy ([2]; x1 = 0.1375) of 0.0187 ± 0.000813 kcal/mol and an excess molar enthalpy ([2]; x1 = 0.1662) of 0.0221 ± 0.000932 kcal/mol. It also gave an excess molar enthalpy ([2]; x1 = 0.2099) of 0.0266 ± 0.00112 kcal/mol, an excess molar enthalpy ([2]; x1 = 0.285) of 0.033 ± 0.00139 kcal/mol and an excess molar enthalpy ([2]; x1 = 0.347) of 0.0364 ± 0.00151 kcal/mol. It also gave an excess molar enthalpy ([2]; x1 = 0.4147) of 0.0393 ± 0.00163 kcal/mol, an excess molar enthalpy ([2]; x1 = 0.4436) of 0.0405 ± 0.00167 kcal/mol and an excess molar enthalpy ([2]; x1 = 0.5152) of 0.0411 ± 0.0017 kcal/mol. For the same compound, the excess molar enthalpy ([2]; x1 = 0.5863) was 0.0404 ± 0.00167 kcal/mol, the excess molar enthalpy ([2]; x1 = 0.6145) was 0.0388 ± 0.00163 kcal/mol and the excess molar enthalpy ([2]; x1 = 0.6801) was 0.0369 ± 0.00153 kcal/mol. The excess molar enthalpy ([2]; x1 = 0.7392) was 0.0319 ± 0.00134 kcal/mol, the excess molar enthalpy ([2]; x1 = 0.8096) was 0.0264 ± 0.00112 kcal/mol and the excess molar enthalpy ([2]; x1 = 0.85) was 0.0222 ± 0.000956 kcal/mol. For the same compound, the excess molar enthalpy ([2]; x1 = 0.914) was 0.0138 ± 0.000621 kcal/mol.

Work on ClCCc1ccccc1 [(2-chloroethyl)benzene] + CCc1ccccc1 yielded an excess molar enthalpy ([2]; x1 = 0.105) of 0.00798 ± 0.000382 kcal/mol, an excess molar enthalpy ([2]; x1 = 0.19) of 0.012 ± 0.00055 kcal/mol and an excess molar enthalpy ([2]; x1 = 0.2603) of 0.0148 ± 0.000645 kcal/mol. For the same compound, the excess molar enthalpy ([2]; x1 = 0.3194) was 0.0181 ± 0.000789 kcal/mol, the excess molar enthalpy ([2]; x1 = 0.3849) was 0.0191 ± 0.000813 kcal/mol and the excess molar enthalpy ([2]; x1 = 0.4841) was 0.0202 ± 0.00086 kcal/mol. The excess molar enthalpy ([2]; x1 = 0.5847) was 0.0193 ± 0.000837 kcal/mol, the excess molar enthalpy ([2]; x1 = 0.6524) was 0.0184 ± 0.000789 kcal/mol and the excess molar enthalpy ([2]; x1 = 0.7379) was 0.0159 ± 0.000693 kcal/mol. For the same compound, the excess molar enthalpy ([2]; x1 = 0.7897) was 0.0144 ± 0.000645 kcal/mol, the excess molar enthalpy ([2]; x1 = 0.8825) was 0.00832 ± 0.000406 kcal/mol and the excess molar enthalpy ([2]; x1 = 0.9037) was 0.00641 ± 0.000335 kcal/mol.

ClCCc1ccccc1 [(2-chloroethyl)benzene] + Cc1ccccc1 showed an excess molar enthalpy ([2]; x1 = 0.075) of -7.17e-05 ± 0.000191 kcal/mol, an excess molar enthalpy ([2]; x1 = 0.092) of 0 ± 0.000239 kcal/mol and an excess molar enthalpy ([2]; x1 = 0.1686) of 0.000191 ± 0.000191 kcal/mol. The excess molar enthalpy ([2]; x1 = 0.2332) was 0.000502 ± 0.000191 kcal/mol, the excess molar enthalpy ([2]; x1 = 0.2885) was 0.000645 ± 0.000191 kcal/mol and the excess molar enthalpy ([2]; x1 = 0.3782) was 0.0011 ± 0.000191 kcal/mol. It also gave an excess molar enthalpy ([2]; x1 = 0.4478) of 0.00131 ± 0.000191 kcal/mol, an excess molar enthalpy ([2]; x1 = 0.5195) of 0.00167 ± 0.000191 kcal/mol and an excess molar enthalpy ([2]; x1 = 0.5488) of 0.00177 ± 0.000191 kcal/mol. It also gave an excess molar enthalpy ([2]; x1 = 0.6186) of 0.00189 ± 0.000191 kcal/mol, an excess molar enthalpy ([2]; x1 = 0.6838) of 0.00184 ± 0.000191 kcal/mol and an excess molar enthalpy ([2]; x1 = 0.7643) of 0.00174 ± 0.000191 kcal/mol. It also gave an excess molar enthalpy ([2]; x1 = 0.8122) of 0.00163 ± 0.000191 kcal/mol, an excess molar enthalpy ([2]; x1 = 0.8439) of 0.00146 ± 0.000191 kcal/mol and an excess molar enthalpy ([2]; x1 = 0.8902) of 0.00115 ± 0.000191 kcal/mol. It also gave an excess molar enthalpy ([2]; x1 = 0.9068) of 0.00098 ± 0.000191 kcal/mol.

For ClCCc1ccccc1 [(2-chloroethyl)benzene] + c1ccccc1, the excess molar enthalpy ([2]; x1 = 0.1016) was 0.00739 ± 0.000359 kcal/mol, the excess molar enthalpy ([2]; x1 = 0.145) was 0.00896 ± 0.00043 kcal/mol and the excess molar enthalpy ([2]; x1 = 0.2028) was 0.0105 ± 0.000478 kcal/mol. It also gave an excess molar enthalpy ([2]; x1 = 0.3115) of 0.0114 ± 0.000526 kcal/mol, an excess molar enthalpy ([2]; x1 = 0.4042) of 0.0112 ± 0.000502 kcal/mol and an excess molar enthalpy ([2]; x1 = 0.5044) of 0.00999 ± 0.000478 kcal/mol. It also gave an excess molar enthalpy ([2]; x1 = 0.5757) of 0.00856 ± 0.000406 kcal/mol, an excess molar enthalpy ([2]; x1 = 0.6706) of 0.00686 ± 0.000359 kcal/mol and an excess molar enthalpy ([2]; x1 = 0.7308) of 0.00581 ± 0.000311 kcal/mol. The excess molar enthalpy ([2]; x1 = 0.8028) was 0.00471 ± 0.000287 kcal/mol and the excess molar enthalpy ([2]; x1 = 0.8444) was 0.00354 ± 0.000239 kcal/mol.

For ClCCCc1ccccc1 [(3-chloropropyl)benzene], the mass density [1] was 1041.84 ± 0.5 kg/m3.

In the case of ClCCCc1ccccc1 [(3-chloropropyl)benzene] + CCCCc1ccccc1, the excess molar enthalpy ([2]; x1 = 0.1167) is reported as 0.00734 ± 0.000359 kcal/mol, the excess molar enthalpy ([2]; x1 = 0.209) is reported as 0.0142 ± 0.000621 kcal/mol and the excess molar enthalpy ([2]; x1 = 0.2605) is reported as 0.0167 ± 0.000717 kcal/mol. The excess molar enthalpy ([2]; x1 = 0.3458) was 0.0197 ± 0.000837 kcal/mol, the excess molar enthalpy ([2]; x1 = 0.4134) was 0.0216 ± 0.000932 kcal/mol and the excess molar enthalpy ([2]; x1 = 0.5138) was 0.0227 ± 0.000956 kcal/mol. It also gave an excess molar enthalpy ([2]; x1 = 0.5849) of 0.0223 ± 0.000956 kcal/mol, an excess molar enthalpy ([2]; x1 = 0.6132) of 0.0214 ± 0.000908 kcal/mol and an excess molar enthalpy ([2]; x1 = 0.6789) of 0.0193 ± 0.000837 kcal/mol. The excess molar enthalpy ([2]; x1 = 0.7381) was 0.0172 ± 0.000741 kcal/mol, the excess molar enthalpy ([2]; x1 = 0.8087) was 0.0137 ± 0.000621 kcal/mol and the excess molar enthalpy ([2]; x1 = 0.9136) was 0.0075 ± 0.000382 kcal/mol.

Compound ClCCCc1ccccc1 [(3-chloropropyl)benzene] + CCCc1ccccc1 has an excess molar enthalpy ([2]; x1 = 0.0863) of 0.000884 ± 0.000191 kcal/mol, an excess molar enthalpy ([2]; x1 = 0.136) of 0.00158 ± 0.000191 kcal/mol and an excess molar enthalpy ([2]; x1 = 0.191) of 0.0022 ± 0.000215 kcal/mol. It also gave an excess molar enthalpy ([2]; x1 = 0.2394) of 0.00277 ± 0.000215 kcal/mol, an excess molar enthalpy ([2]; x1 = 0.3207) of 0.00327 ± 0.000239 kcal/mol and an excess molar enthalpy ([2]; x1 = 0.3863) of 0.00392 ± 0.000263 kcal/mol. It also gave an excess molar enthalpy ([2]; x1 = 0.4145) of 0.00411 ± 0.000263 kcal/mol, an excess molar enthalpy ([2]; x1 = 0.4856) of 0.00445 ± 0.000263 kcal/mol and an excess molar enthalpy ([2]; x1 = 0.5573) of 0.00466 ± 0.000287 kcal/mol. It also gave an excess molar enthalpy ([2]; x1 = 0.5861) of 0.00464 ± 0.000287 kcal/mol, an excess molar enthalpy ([2]; x1 = 0.6538) of 0.00464 ± 0.000287 kcal/mol and an excess molar enthalpy ([2]; x1 = 0.7157) of 0.00423 ± 0.000263 kcal/mol. The excess molar enthalpy ([2]; x1 = 0.7391) was 0.00428 ± 0.000263 kcal/mol, the excess molar enthalpy ([2]; x1 = 0.7906) was 0.00378 ± 0.000239 kcal/mol and the excess molar enthalpy ([2]; x1 = 0.8343) was 0.00311 ± 0.000239 kcal/mol. For the same compound, the excess molar enthalpy ([2]; x1 = 0.9042) was 0.00215 ± 0.000215 kcal/mol and the excess molar enthalpy ([2]; x1 = 0.9189) was 0.00191 ± 0.000191 kcal/mol.

Compound ClCCCc1ccccc1 [(3-chloropropyl)benzene] + CCc1ccccc1 has an excess molar enthalpy ([2]; x1 = 0.0766) of -0.00471 ± 0.000287 kcal/mol, an excess molar enthalpy ([2]; x1 = 0.1214) of -0.00691 ± 0.000359 kcal/mol and an excess molar enthalpy ([2]; x1 = 0.1717) of -0.00891 ± 0.00043 kcal/mol. The excess molar enthalpy ([2]; x1 = 0.2372) was -0.0103 ± 0.000478 kcal/mol, the excess molar enthalpy ([2]; x1 = 0.2931) was -0.0111 ± 0.000502 kcal/mol and the excess molar enthalpy ([2]; x1 = 0.3835) was -0.012 ± 0.00055 kcal/mol. For the same compound, the excess molar enthalpy ([2]; x1 = 0.4534) was -0.012 ± 0.00055 kcal/mol, the excess molar enthalpy ([2]; x1 = 0.5251) was -0.0117 ± 0.000526 kcal/mol and the excess molar enthalpy ([2]; x1 = 0.5544) was -0.0114 ± 0.000526 kcal/mol. The excess molar enthalpy ([2]; x1 = 0.6239) was -0.0103 ± 0.000478 kcal/mol, the excess molar enthalpy ([2]; x1 = 0.7133) was -0.00832 ± 0.000406 kcal/mol and the excess molar enthalpy ([2]; x1 = 0.7684) was -0.00719 ± 0.000359 kcal/mol. For the same compound, the excess molar enthalpy ([2]; x1 = 0.8327) was -0.00519 ± 0.000287 kcal/mol and the excess molar enthalpy ([2]; x1 = 0.8924) was -0.00335 ± 0.000239 kcal/mol.

ClCCCc1ccccc1 [(3-chloropropyl)benzene] + Cc1ccccc1 showed an excess molar enthalpy ([2]; x1 = 0.1072) of -0.0125 ± 0.000574 kcal/mol, an excess molar enthalpy ([2]; x1 = 0.1526) of -0.0165 ± 0.000717 kcal/mol and an excess molar enthalpy ([2]; x1 = 0.1936) of -0.0195 ± 0.000837 kcal/mol. For the same compound, the excess molar enthalpy ([2]; x1 = 0.2648) was -0.0232 ± 0.00098 kcal/mol, the excess molar enthalpy ([2]; x1 = 0.3244) was -0.0253 ± 0.00108 kcal/mol and the excess molar enthalpy ([2]; x1 = 0.3507) was -0.0253 ± 0.00108 kcal/mol. The excess molar enthalpy ([2]; x1 = 0.4187) was -0.0272 ± 0.00115 kcal/mol, the excess molar enthalpy ([2]; x1 = 0.4899) was -0.0259 ± 0.0011 kcal/mol and the excess molar enthalpy ([2]; x1 = 0.5193) was -0.0255 ± 0.00108 kcal/mol. The excess molar enthalpy ([2]; x1 = 0.5903) was -0.0243 ± 0.00103 kcal/mol, the excess molar enthalpy ([2]; x1 = 0.6576) was -0.0218 ± 0.000932 kcal/mol and the excess molar enthalpy ([2]; x1 = 0.6836) was -0.0205 ± 0.000884 kcal/mol. For the same compound, the excess molar enthalpy ([2]; x1 = 0.7423) was -0.018 ± 0.000789 kcal/mol, the excess molar enthalpy ([2]; x1 = 0.8121) was -0.0136 ± 0.000598 kcal/mol and the excess molar enthalpy ([2]; x1 = 0.8781) was -0.00882 ± 0.00043 kcal/mol.
